Tests used:
Format in all cases: cell-based
Conditions in all cases: tested at 1 mM, 316 μM, 100 μM; hit = luciferase activity >= median + 2 standard deviations
OR52B2 = target: T1, OR52B2 (Homo sapiens, UniProt Q96RD2); experiment: CRE-luciferase reporter assay, OR52B2 in HEK293T-RTP1A1/RTP2 cells
T1 construct: expressed in transfected cells; host or cells: HEK293T-RTP1A1/RTP2
T1 sequence (Q96RD2 1-323): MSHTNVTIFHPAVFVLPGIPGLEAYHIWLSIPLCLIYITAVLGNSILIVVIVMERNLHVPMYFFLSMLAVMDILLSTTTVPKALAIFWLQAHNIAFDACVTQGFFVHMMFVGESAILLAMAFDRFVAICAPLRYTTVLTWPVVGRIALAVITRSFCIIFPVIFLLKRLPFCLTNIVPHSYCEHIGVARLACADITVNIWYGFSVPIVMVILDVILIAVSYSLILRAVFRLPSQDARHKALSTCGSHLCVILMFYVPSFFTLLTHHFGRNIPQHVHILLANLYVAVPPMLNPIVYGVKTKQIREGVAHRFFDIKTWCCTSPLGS
Description: (§1) Cells were maintained in minimal essential medium (EMEM, Lonza) containing 10% fetal bovine serum (M10). HEK293T-RTP1A1/RTP2 cells were generated by transfecting HEK293T with an expression vector containing the sequences of the chaperone proteins RTP1A1 and RTP2 and a resistance gene to puromycin, using Lipofectamine 2000. A recombinant cell population was selected by adding 10 μg/ml of puromycin into the culture medium. Monoclonal populations were further obtained by limit dilution procedure. Briefly, a cell suspension was diluted to contain 1 cell per ml and this dilution was dispatched in poly-D-lysine-coated 96 wells plates (200 μl of dilution per well). After 5 days of culture, the presence and number of cell colonies per well was checked under a phase contrast microscopic. After 5 additional days of culture, wells containing a single colony were harvested and each collected population was amplified independently.
(§2) For screening experiments, stock solutions of odorant molecules were diluted in EMEM disposed in 96-well plates. Plates containing the tested molecules (1 molecule/well) at a concentration of 2 mM, at a concentration of 632 μM and at a concentration of 200 μM were prepared.
(§3) For concentration-response analysis, serial dilutions of the tested molecules were prepared from stock solutions in EMEM plated into 96-well plates.
(§4) For the initial deorphanisation screening and dose-response analysis, a Luciferase-based gene reporter assay (Promega, Leiden, The Nederlands) was used as described in Saito et al. (2004). Briefly, cells were platted on poly-D-lysine-coated 96-well plates (BD Bioscience, Erembodegem-Dorp, Belgium) and transfected with a plasmid containing the CRE-luciferase and a plasmid containing the olfactory receptor. Sixteen hours after transfection, the culture medium was replaced by serum-free EMEM containing the tested ligand at a determined concentration. After four hours of incubation at 37° C. degree, cells were lysed and processed for luminescence measurement according to the manufacturer's protocols. Luminescene emission was recorded on a Spectra Max M5 reader (Molecular Devices, Sunnyvale, Calif.). Results were expressed as percentage of the response induced by 10 μM of the adenylate cyclase activator Forskolin.
(§5) Each molecule was tested at 3 different concentrations (1 mM, 316 μM, 100 μM). The different molecules of the tested libraries were disposed at the same concentration into 96 well plates (1 well/molecule) containing cells expressing the receptor of interest. The activity of the tested molecules was measured using the lucifierase activity as explained above. The median luciferase activity induced by the tested molecules and the associated standard deviation were determined. Putatively active molecules (hits) were defined as molecules inducing a luciferase activity higher or equal to the median+2 standard deviations.
(§6) The hits were validated by concentration-response analysis. Semi-logarithmic serial dilutions of hit molecules, from 1 mM to 316 nM, were tested on the responding ORs using the luciferase assay as described above.

OR56A5 = target: T2, OR56A5 (Homo sapiens, UniProt P0C7T3, R311K/V104M); experiment: CRE-luciferase reporter assay, OR56A5 in HEK293T-RTP1A1/RTP2 cells
T2 construct: expressed in transfected cells; host or cells: HEK293T-RTP1A1/RTP2
T2 sequence (P0C7T3 1-313 V104M/R311K): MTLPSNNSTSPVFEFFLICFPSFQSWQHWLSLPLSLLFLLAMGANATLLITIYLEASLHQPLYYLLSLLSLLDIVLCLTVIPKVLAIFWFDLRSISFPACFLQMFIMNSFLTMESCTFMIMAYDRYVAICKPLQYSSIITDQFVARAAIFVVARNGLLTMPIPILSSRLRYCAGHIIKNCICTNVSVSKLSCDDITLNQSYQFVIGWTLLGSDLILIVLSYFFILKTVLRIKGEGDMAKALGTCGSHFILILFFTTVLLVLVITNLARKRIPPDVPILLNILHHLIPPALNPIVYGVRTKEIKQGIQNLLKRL
Description: as §1, §2, §3, §4, §5, §6

OR51I2 = target: T3, OR51I2 (Homo sapiens, UniProt Q9H344, T134A); experiment: CRE-luciferase reporter assay, OR51I2 in HEK293T-RTP1A1/RTP2 cells
T3 construct: expressed in transfected cells; host or cells: HEK293T-RTP1A1/RTP2
T3 sequence (Q9H344 1-312 T134A): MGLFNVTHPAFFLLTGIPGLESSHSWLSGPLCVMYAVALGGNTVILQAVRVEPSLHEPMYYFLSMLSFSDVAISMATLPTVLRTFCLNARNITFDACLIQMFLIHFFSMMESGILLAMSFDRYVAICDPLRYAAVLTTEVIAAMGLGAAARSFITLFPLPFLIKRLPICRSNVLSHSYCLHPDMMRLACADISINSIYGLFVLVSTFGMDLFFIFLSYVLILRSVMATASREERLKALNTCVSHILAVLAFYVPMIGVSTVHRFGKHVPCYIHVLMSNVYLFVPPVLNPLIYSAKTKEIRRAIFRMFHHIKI
Description: as §1, §2, §3, §4, §5, §6

OR52E1 = target: T4, OR52E1 (Homo sapiens, UniProt Q8NGJ3, F254L/Y278C); experiment: CRE-luciferase reporter assay, OR52E1 in HEK293T-RTP1A1/RTP2 cells
T4 construct: expressed in transfected cells; host or cells: HEK293T-RTP1A1/RTP2
Description: as §1, with “independently. For screening experiments, stock solutions of odorant molecules were diluted in EMEM disposed in 96-well plates. Plates containing the tested molecules (1 molecule/well) at a concentration of 2 mM, at a concentration of 632 μM and at a concentration of 200 μM were prepared. For concentration-response analysis, serial dilutions of the tested molecules were prepared from stock solutions in EMEM plated into 96-well plates. […]” for “independently.”

OR52L1 = target: T5, OR52L1 (Homo sapiens, UniProt Q8NGH7, R140C/S130L); experiment: CRE-luciferase reporter assay, OR52L1 in HEK293T-RTP1A1/RTP2 cells
T5 construct: expressed in transfected cells; host or cells: HEK293T-RTP1A1/RTP2
T5 sequence (Q8NGH7 1-329 S130L/R140C): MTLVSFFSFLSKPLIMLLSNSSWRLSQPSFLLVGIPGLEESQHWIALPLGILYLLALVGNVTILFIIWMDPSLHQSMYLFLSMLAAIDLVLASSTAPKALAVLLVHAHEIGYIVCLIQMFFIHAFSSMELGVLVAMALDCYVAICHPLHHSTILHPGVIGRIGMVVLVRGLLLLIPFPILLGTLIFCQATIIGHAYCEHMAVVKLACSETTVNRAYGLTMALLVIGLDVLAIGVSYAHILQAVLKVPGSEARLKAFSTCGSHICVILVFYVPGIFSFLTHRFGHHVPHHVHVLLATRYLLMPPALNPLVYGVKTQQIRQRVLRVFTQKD
Description: as §1, with “independently. For screening experiments, stock solutions of odorant molecules were diluted in EMEM disposed in 96-well plates. Plates containing the tested molecules (1 molecule/well) at a concentration of 2 mM, at a concentration of 632 μM and at a concentration of 200 μM were prepared. For concentration-response analysis, serial dilutions of the tested molecules were prepared from stock solutions in EMEM plated into 96-well plates. […]” for “independently.”

OR52A5 = target: T6, OR52A5 (Homo sapiens, UniProt Q9H2C5); experiment: CRE-luciferase reporter assay, OR52A5 in HEK293T-RTP1A1/RTP2 cells
T6 construct: expressed in transfected cells; host or cells: HEK293T-RTP1A1/RTP2
T6 sequence (Q9H2C5 1-314 limits assumed): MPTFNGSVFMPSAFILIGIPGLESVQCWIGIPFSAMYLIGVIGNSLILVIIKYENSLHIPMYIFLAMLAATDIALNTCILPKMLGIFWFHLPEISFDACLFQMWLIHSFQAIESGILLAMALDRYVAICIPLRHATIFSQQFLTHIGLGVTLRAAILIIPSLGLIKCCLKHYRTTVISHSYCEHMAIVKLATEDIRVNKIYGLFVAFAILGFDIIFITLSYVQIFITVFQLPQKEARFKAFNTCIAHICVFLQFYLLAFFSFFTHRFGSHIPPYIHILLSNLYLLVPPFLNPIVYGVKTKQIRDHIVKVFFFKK
Description: as §1, with “After 5 days of culture, the presence and number of cell colonies per well was checked under a phase contrast microscopic. After 5 additional days of culture, wells containing a single colony were harvested and each collected population was amplified independently.” left out
as §4, with “Briefly, cells were platted on poly-D-lysine-coated 96-well plates (BD Bioscience, Erembodegem-Dorp, Belgium) and transfected with a plasmid containing the CRE-luciferase and a plasmid containing the olfactory receptor.” left out, “Forskolin. […]” for “Forskolin.”

OR52E8 = target: T7, OR52E8 (Homo sapiens, UniProt Q6IFG1); experiment: CRE-luciferase reporter assay, OR52E8 in HEK293T-RTP1A1/RTP2 cells
T7 construct: expressed in transfected cells; host or cells: HEK293T-RTP1A1/RTP2
Description: as §1, with “After 5 days of culture, the presence and number of cell colonies per well was checked under a phase contrast microscopic. After 5 additional days of culture, wells containing a single colony were harvested and each collected population was amplified independently.” left out
as §4, with “Briefly, cells were platted on poly-D-lysine-coated 96-well plates (BD Bioscience, Erembodegem-Dorp, Belgium) and transfected with a plasmid containing the CRE-luciferase and a plasmid containing the olfactory receptor.” left out, “Forskolin. […]” for “Forskolin.”

T4 sequence (Q8NGJ3 whole entry F254L/Y278C): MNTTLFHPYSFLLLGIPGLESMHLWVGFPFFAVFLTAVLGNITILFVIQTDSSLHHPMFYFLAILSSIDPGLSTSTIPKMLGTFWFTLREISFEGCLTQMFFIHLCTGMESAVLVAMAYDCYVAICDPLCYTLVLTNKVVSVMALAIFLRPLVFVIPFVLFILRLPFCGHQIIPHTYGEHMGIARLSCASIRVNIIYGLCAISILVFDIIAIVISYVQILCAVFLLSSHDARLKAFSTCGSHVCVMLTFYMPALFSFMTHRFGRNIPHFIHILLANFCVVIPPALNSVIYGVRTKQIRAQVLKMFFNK
T7 sequence (Q6IFG1 with tags, fused parts or gaps): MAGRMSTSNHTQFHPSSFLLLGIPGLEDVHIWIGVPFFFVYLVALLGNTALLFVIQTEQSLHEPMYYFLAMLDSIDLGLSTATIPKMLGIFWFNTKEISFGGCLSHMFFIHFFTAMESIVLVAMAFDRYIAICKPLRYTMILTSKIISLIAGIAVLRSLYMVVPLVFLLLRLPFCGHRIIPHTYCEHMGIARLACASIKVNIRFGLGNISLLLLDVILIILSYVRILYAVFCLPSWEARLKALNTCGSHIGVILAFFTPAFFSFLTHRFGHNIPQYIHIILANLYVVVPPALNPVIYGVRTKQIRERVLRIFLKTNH

| SMILES | activation of OR56A5 (hit in luciferase assay) (OR56A5) | activation of OR51I2 (hit in luciferase assay) (OR51I2) | activation of OR52B2 (hit in luciferase assay) (OR52B2) | further results |
| --- | --- | --- | --- | --- |
| CCCCC(CC)CCC(=O)O (stereo not shown) [4-ethyloctanoic acid] | – | – | – | activation of OR52A5 (hit in luciferase assay) (OR52A5): activation |
| CCCCCC(C)C(=O)O (stereo not shown) [2-methylheptanoic acid] | activation | – | – | – |
| CCCCCCCCC(=O)O [nonanoic acid] | activation | – | activation | – |
| CCCCC(C)C(=O)O (stereo not shown) [2-methylhexanoic acid] | – | activation | – | – |
| CCCCCC(=O)O [hexanoic acid] | activation | activation | activation | – |
| CCC/C(C)=C/C(=O)O [(E)-3-methyl-2-hexanoic acid] | – | activation | – | – |
| O=C(O)c1ccccc1 [benzoic acid] | – | activation | – | – |
| CCCC(C)CC(=O)O (stereo not shown) [3-methylhexanoic acid] | – | activation | – | – |
| CCCC(C)(O)CC(=O)O (stereo not shown) [3-hydroxy-3-methylhexanoic acid] | – | – | – | activation of OR52E8 (hit in luciferase assay) (OR52E8): activation |
| CCCCCCCC(=O)O [octanoic acid] | activation | – | activation | – |

Now from value to molecule, other results behind:

| activation of OR56A5 (hit in luciferase assay) (OR56A5) | activation of OR51I2 (hit in luciferase assay) (OR51I2) | SMILES | activation of OR52B2 (hit in luciferase assay) (OR52B2) | further results |
| --- | --- | --- | --- | --- |
| activation | – | CCCCCCCCCC(=O)O [decanoic acid] | activation | – |
| – | activation | CCCC(=O)O [butanoic acid] | – | activation of OR52E1 (hit in luciferase assay) (OR52E1): activation |
| – | activation | CCCCC(=O)O [pentanoic acid] | – | activation of OR52L1 (hit in luciferase assay) (OR52L1): activation |
| – | activation | CC(C)CC(=O)O [isovaleric acid] | – | – |
| activation | – | CCCCCCCCCCC(=O)O [undecanoic acid] | activation | – |
| activation | – | CCCCCCC(=O)O [heptanoic acid] | activation | – |
